Measured values reported in patent US20220317138A1, “METHODS FOR DETERMINING THE CONCENTRATION OF A CARBAPENEM ANTIBIOTIC IN A BIOLOGICAL SAMPLE” (priority 2019, published 2022).
Where two headings read alike, the source gives them in different places.

B1: Ndm1: class B beta-lactamase screened (protein, UniProt C7C422 29-270, looked up)
Metallo-beta-lactamase type 2: GEIRPTIGQQMETGDQRFGDLVFRQLAPNVWQHTSYLDMPGFGAVASNGLIVRDGGRVLVVDTAWTDDQTAQILNWIKQEINLPVALAVVTHAHQDKMGGMDALHAAGIATYANALSNQLAPQEGMVAAQHSLTFAANGWVEPATAPNFGPLKVFYPGPGHTSDNITVGIDGTDIAFGGCLIKDSKAKSLGNLGDADTEHYAASARAFGAAFPKASMIVMSHSAPDSRAAITHTARMADKLR
B2: Kpc2: class A beta-lactamase screened (protein, UniProt Q9F663 25-293, looked up)
Carbapenem-hydrolyzing …: LTNLVAEPFAKLEQDFGGSIGVYAMDTGSGATVSYRAEERFPLCSSFKGFLAAAVLARSQQQAGLLDTPIRYGKNALVPWSPISEKYLTTGMTVAELSAAAVQYSDNAAANLLLKELGGPAGLTAFMRSIGDTTFRLDRWELELNSAIPGDARDTSSPRAVTESLQKLTLGSALAAPQRQQFVDWLKGNTTGNHRIRAAVPADWAVGDKTGTCGVYGTANDYAVVWPTGRAPIVLAVYTRAPNKDDKHSEAVIAAAARLALEGLGVNGQ

Key:
[1] = tested on: Per2 beta-lactamase (class A); test: Screening of beta-lactamases by competition, nitrocefin as reporter substrate; type: biochemical
[2] = target: Oxa48 beta-lactamase (class D) (Klebsiella pneumoniae, UniProt Q6XEC0); type: biochemical; details: nitrocefin reporter
[3] = target: T1, beta-lactamase class D OXA-48 (Klebsiella pneumoniae, UniProt Q6XEC0); type: biochemical; details: for Accuracy <> (average) / [Meropenem] <> (average): average of 5 replicates
Text: The specificity (or selectivity) of the method according to an embodiment of the invention is defined as the ability of the method to measure the concentration of a carbapenem antibiotic (such as meropenem) in presence of an excess of another beta-lactam antibiotic (second beta-lactam) currently used in ICUs (see Table 4).
To determine the specificity of the method illustrating the invention for carbapenem antibiotics, in particular meropenem, versus other beta-lactam antibiotics, stock-solutions of second beta-lactam antibiotics were prepared in water.
An excess of a second beta-lactam concentration of up to 10 times the concentration of meropenem was used.

[4] = tested on: AmpCHD beta-lactamase (class C); test: Screening of beta-lactamases by competition, nitrocefin as reporter substrate; type: biochemical
[5] = target: P99 beta-lactamase (class C) (Enterobacter cloacae, UniProt P05364); type: biochemical; details: nitrocefin reporter
[6] = target: CTXM15 beta-lactamase (class A) (Escherichia coli, UniProt Q9EXV5); type: biochemical; details: nitrocefin reporter
[7] = tested on: Imp4 beta-lactamase (class B); test: Screening of beta-lactamases by competition, nitrocefin as reporter substrate; type: biochemical
[8] = target: BlaP beta-lactamase (class A) (Bacillus licheniformis, UniProt P00808); type: biochemical; details: nitrocefin reporter
[9] = target: T1, beta-lactamase class D OXA-48; type: biochemical; details: OXA-48, nitrocefin, 482 nm
[10] = target: OXA-48 (Klebsiella pneumoniae, UniProt Q6XEC0); details: OXA-48, for meropenem; cited from earlier work
[11] = target: Kpc2 beta-lactamase (class A) (Klebsiella pneumoniae, UniProt Q9F663); type: biochemical; details: nitrocefin reporter
[12] = tested on: OXA-163; details: OXA-163, for meropenem; cited from earlier work
[13] = target: Imp1 beta-lactamase (class B) (Serratia marcescens, UniProt P52699); type: biochemical; details: nitrocefin reporter
[14] = target: Ndm1 beta-lactamase (class B) (Klebsiella pneumoniae, UniProt C7C422); type: biochemical; details: nitrocefin reporter
[15] = Activity loss of the beta-lactamase in 1 h; type: physicochemical; details: enzyme activity
[16] = Meropenem 1.2 mg/L, second β-lactam 10.0 mg/L (8.4 times excess)
[17] = Meropenem 20.0 mg/L, second β-lactam 200.0 mg/L (10 times excess)

Chain of P99 beta-lactamase (class C) (P05364 21-381): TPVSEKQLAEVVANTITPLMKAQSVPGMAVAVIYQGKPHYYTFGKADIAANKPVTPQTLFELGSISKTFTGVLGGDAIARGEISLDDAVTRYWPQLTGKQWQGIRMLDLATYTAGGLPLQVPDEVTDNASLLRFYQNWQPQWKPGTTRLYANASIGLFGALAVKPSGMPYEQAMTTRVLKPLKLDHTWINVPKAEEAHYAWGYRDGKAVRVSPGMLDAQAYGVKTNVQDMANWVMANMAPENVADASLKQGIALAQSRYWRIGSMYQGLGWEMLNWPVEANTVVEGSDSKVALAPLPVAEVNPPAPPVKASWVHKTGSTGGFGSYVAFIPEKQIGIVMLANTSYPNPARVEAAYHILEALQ
T1 sequence (Q6XEC0 23-265 limits assumed): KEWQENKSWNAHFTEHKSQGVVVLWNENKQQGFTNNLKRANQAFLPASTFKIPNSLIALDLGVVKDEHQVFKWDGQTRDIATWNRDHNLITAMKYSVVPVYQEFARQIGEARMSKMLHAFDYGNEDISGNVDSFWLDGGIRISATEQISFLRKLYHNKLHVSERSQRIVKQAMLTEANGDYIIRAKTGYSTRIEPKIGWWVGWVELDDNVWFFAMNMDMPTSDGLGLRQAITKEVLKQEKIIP
Chain of CTXM15 beta-lactamase (class A) (Q9EXV5 29-291 limits assumed): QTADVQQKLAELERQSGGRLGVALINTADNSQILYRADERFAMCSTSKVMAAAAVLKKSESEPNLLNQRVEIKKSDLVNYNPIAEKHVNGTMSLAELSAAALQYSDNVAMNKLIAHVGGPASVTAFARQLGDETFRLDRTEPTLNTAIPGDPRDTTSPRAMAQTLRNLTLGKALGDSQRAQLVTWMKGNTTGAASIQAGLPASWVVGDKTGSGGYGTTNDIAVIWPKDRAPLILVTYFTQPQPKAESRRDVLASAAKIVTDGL
Chain of Imp1 beta-lactamase (class B) (P52699 19-246 limits assumed): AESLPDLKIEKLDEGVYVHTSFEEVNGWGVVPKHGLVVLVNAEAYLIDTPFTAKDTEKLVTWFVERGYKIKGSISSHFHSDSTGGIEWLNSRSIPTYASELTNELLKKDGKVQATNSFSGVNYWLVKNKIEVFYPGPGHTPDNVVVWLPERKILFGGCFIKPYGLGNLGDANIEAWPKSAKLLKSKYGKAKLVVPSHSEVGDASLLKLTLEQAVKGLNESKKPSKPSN
Chain of Oxa48 beta-lactamase (class D) (Q6XEC0 23-265 limits assumed): as the sequence (Q6XEC0 23-265 limits assumed) above
Chain of OXA-48 (Q6XEC0 23-265 limits assumed): as above
Chain of BlaP beta-lactamase (class A) (P00808 27-307 limits assumed): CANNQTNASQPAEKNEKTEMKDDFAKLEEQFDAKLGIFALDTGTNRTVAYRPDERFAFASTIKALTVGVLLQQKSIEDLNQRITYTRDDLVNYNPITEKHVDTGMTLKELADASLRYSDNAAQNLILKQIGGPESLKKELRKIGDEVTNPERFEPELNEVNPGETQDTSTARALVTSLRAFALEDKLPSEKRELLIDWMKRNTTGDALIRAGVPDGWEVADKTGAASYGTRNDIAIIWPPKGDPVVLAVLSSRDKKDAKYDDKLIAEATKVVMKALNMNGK

Molecule | Accuracy <> (average) [3, 16] | [Meropenem] <> (average) [3, 16] | Accuracy Replicate 1 [3, 16] | [Meropenem] Replicate 1 [3, 16] | Accuracy Replicate 2 [3, 16] | [Meropenem] Replicate 2 [3, 16] | Accuracy Replicate 3 [3, 16] | [Meropenem] Replicate 3 [3, 16] | Accuracy Replicate 4 [3, 16] | [Meropenem] Replicate 4 [3, 16] | Accuracy Replicate 5 [3, 16] | [Meropenem] Replicate 5 [3, 16] | Accuracy <> (average) [3, 17] | [Meropenem] <> (average) [3, 17] | Accuracy Replicate 1 [3, 17] | [Meropenem] Replicate 1 [3, 17] | Accuracy Replicate 2 [3, 17] | [Meropenem] Replicate 2 [3, 17] | Accuracy Replicate 3 [3, 17] | [Meropenem] Replicate 3 [3, 17] | also measured
CC1(C)S[C@@H]2[C@H](NC(=O)[C@H](C(=O)O)c3ccsc3)C(=O)N2[C@H]1C(=O)O [Ticarpen ®] | 112% | 1.3 mg/L | 121% | 1.4 mg/L | 122% | 1.4 mg/L | 102% | 1.2 mg/L | 111% | 1.3 mg/L | 105% | 1.2 mg/L | 101% | 22.6 mg/L | 102% | 22.7 mg/L | 105% | 23.4 mg/L | 104% | 23.1 mg/L | hydrolysis rate symbol, (Vmax/V0)-1 [1]: ++ (1-10); hydrolysis rate symbol, (Vmax/V0)-1 [2]: + (0.1-1); Accuracy Replicate 4 [3, 17]: 98%; [Meropenem] Replicate 4 [3, 17]: 21.9 mg/L; Accuracy Replicate 5 [3, 17]: 98%; [Meropenem] Replicate 5 [3, 17]: 21.9 mg/L; hydrolysis rate symbol, (Vmax/V0)-1 [4]: + (0.1-1); hydrolysis rate symbol, (Vmax/V0)-1 [5]: ++++ (>100); hydrolysis rate symbol, (Vmax/V0)-1 [6]: ++ (1-10)
C[C@@H](O)[C@H]1C(=O)N2C(C(=O)O)=C(S[C@@H]3CN[C@H](C(=O)N(C)C)C3)[C@H](C)[C@H]12 [Meropenem, meropenem] | 100% | 1.2 mg/L | 98% | 1.1 mg/L | 100% | 1.2 mg/L | 97% | 1.1 mg/L | 108% | 1.3 mg/L | 97% | 1.1 mg/L | 100% | 20.2 mg/L | 103% | 20.7 mg/L | 104% | 20.9 mg/L | 98% | 19.8 mg/L | hydrolysis rate symbol, (Vmax/V0)-1 [7]: + (0.1-1); hydrolysis rate symbol, (Vmax/V0)-1 [8]: + (0.1-1); hydrolysis rate symbol, (Vmax/V0)-1 [2]: +++ (10-100); lower limit of quantification (LLOQ) [9]: 0.5 mg/L; upper limit of quantification (ULOQ) [9]: 20 mg/L; Accuracy Replicate 4 [3, 17]: 98%; [Meropenem] Replicate 4 [3, 17]: 19.9 mg/L; Accuracy Replicate 5 [3, 17]: 97%; [Meropenem] Replicate 5 [3, 17]: 19.6 mg/L; hydrolysis rate symbol, (Vmax/V0)-1 [4]: + (0.1-1); Km [10]: 200 µM; hydrolysis rate symbol, (Vmax/V0)-1 [5]: +++ (10-100); hydrolysis rate symbol, (Vmax/V0)-1 [11]: + (0.1-1); Km [12]: 2200 µM; hydrolysis rate symbol, (Vmax/V0)-1 [13]: + (0.1-1); hydrolysis rate symbol, (Vmax/V0)-1 [6]: +++ (10-100)
Cn1nnnc1SCC1=C(C(=O)O)N2C(=O)[C@@H](NC(=O)[C@H](O)c3ccccc3)[C@H]2SC1 [Cefamandole ®, Cefamandole] | 115% | 1.3 mg/L | 112% | 1.3 mg/L | 116% | 1.3 mg/L | 114% | 1.3 mg/L | 123% | 1.4 mg/L | 112% | 1.3 mg/L | 99% | 22.0 mg/L | 97% | 21.5 mg/L | 98% | 21.9 mg/L | 99% | 22.2 mg/L | hydrolysis rate symbol, (Vmax/V0)-1 [7]: ++ (1-10); hydrolysis rate symbol, (Vmax/V0)-1 [1]: + (0.1-1); hydrolysis rate symbol, (Vmax/V0)-1 [14]: + (0.1-1); Accuracy Replicate 4 [3, 17]: 105%; [Meropenem] Replicate 4 [3, 17]: 23.4 mg/L; Accuracy Replicate 5 [3, 17]: 94%; [Meropenem] Replicate 5 [3, 17]: 21.0 mg/L; hydrolysis rate symbol, (Vmax/V0)-1 [4]: ++ (1-10); hydrolysis rate symbol, (Vmax/V0)-1 [5]: ++ (1-10); hydrolysis rate symbol, (Vmax/V0)-1 [13]: ++ (1-10)
B1 | – | – | – | – | – | – | – | – | – | – | – | – | – | – | – | – | – | – | – | – | Activity loss in 1 h [15]: 0%
B2 | – | – | – | – | – | – | – | – | – | – | – | – | – | – | – | – | – | – | – | – | Activity loss in 1 h [15]: 2%
